Test results published in patent US9505728B2, “Triazolone compounds and uses thereof” (INCEPTION 2, INC., priority 2012, dated 2016).

Columns and labels:
PPAR beta/delta = target: T1, PPAR beta/delta (Homo sapiens, UniProt Q03181); assay: Target selectivity counterscreen, PPAR β/δ reporter assay; type: cell-based; details: receptor agonist at ~EC80
T1 construct: host or cells: engineered reporter cells of the kit
T1 sequence (Q03181 1-441): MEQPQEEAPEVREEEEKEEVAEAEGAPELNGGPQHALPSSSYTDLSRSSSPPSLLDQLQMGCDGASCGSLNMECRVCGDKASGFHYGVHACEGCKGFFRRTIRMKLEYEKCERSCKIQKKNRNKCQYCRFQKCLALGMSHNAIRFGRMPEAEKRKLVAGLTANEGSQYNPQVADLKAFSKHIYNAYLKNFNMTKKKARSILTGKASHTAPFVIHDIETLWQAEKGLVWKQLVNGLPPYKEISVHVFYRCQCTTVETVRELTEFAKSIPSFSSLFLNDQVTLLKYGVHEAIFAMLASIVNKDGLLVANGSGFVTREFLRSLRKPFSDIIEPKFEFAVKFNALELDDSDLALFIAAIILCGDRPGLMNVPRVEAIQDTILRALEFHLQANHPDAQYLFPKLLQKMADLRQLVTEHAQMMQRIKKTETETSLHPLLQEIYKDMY
Procedure: (§1) Target Selectivity Assays
(§2) To determine species selectivity, a Mouse PPARα Reporter Assay System was used (Indigo Biosciences, Cat. #M00111). Activity of test compounds to antagonize or agonize other isoforms of human PPAR, for example β/δ and γ, were assessed using the corresponding kits from Indigo Biosciences (Cat. #IB00121 and #IB00101, respectively). In addition to PPAR activity, compounds were also screened for activity against other nuclear hormone receptors including Estrogen Receptor β, Glucocorticoid Receptor and Thyroid Receptor β using commercially available kits (Indigo Biosciences, Cat. #IB00411, IB00201 and IB01101, respectively). Each assay system from Indigo Biosciences uses technology analogous to the human PPARα kit, with the variance being that the cells used for each assay were engineered to over-express the receptor of interest. In addition, the appropriate receptor agonist (included with each kit) was used at ˜EC80 for assays in which antagonist potency was being assessed.

PPAR gamma = target: T2, PPAR gamma (Homo sapiens, UniProt P37231); assay: Target selectivity counterscreen, PPAR γ reporter assay; type: cell-based; details: receptor agonist at ~EC80
T2 construct: host or cells: engineered reporter cells of the kit
T2 sequence (P37231 1-505): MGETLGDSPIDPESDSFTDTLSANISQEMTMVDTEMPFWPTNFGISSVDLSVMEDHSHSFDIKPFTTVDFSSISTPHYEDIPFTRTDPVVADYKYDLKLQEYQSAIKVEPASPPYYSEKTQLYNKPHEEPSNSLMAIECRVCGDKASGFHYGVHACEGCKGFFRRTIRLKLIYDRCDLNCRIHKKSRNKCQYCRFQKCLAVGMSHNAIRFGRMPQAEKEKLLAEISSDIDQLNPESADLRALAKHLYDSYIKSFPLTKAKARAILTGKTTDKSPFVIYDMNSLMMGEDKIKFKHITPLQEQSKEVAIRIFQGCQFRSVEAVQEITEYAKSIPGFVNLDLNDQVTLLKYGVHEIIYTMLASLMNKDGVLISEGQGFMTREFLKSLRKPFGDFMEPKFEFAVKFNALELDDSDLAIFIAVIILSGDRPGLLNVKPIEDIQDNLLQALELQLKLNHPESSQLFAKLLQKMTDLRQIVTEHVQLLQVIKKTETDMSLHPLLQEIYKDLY
Procedure: as §1, §2

Thyroid Receptor β = target: T3, Thyroid Receptor β (Homo sapiens, UniProt P10828); assay: Target selectivity counterscreen, Thyroid Receptor β reporter assay; type: cell-based; details: receptor agonist at ~EC80
T3 construct: host or cells: engineered reporter cells of the kit
T3 sequence (P10828 1-461): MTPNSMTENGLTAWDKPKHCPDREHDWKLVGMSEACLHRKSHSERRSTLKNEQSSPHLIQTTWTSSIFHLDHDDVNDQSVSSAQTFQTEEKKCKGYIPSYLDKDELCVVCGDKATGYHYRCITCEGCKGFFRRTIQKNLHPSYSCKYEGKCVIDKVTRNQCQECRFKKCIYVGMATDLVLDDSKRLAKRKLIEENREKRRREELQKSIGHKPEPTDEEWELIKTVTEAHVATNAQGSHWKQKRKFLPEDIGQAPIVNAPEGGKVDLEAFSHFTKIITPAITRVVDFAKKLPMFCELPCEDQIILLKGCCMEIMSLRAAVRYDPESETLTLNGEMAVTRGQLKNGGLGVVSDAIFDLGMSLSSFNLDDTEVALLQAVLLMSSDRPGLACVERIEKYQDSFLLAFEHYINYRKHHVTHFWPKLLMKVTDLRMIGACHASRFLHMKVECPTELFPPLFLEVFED
Procedure: as §1, §2

Estrogen Receptor β = target: T4, Estrogen Receptor β (Homo sapiens, UniProt Q92731); assay: Target selectivity counterscreen, Estrogen Receptor β reporter assay; type: cell-based; details: receptor agonist at ~EC80
T4 construct: host or cells: engineered reporter cells of the kit
T4 sequence (Q92731 whole entry): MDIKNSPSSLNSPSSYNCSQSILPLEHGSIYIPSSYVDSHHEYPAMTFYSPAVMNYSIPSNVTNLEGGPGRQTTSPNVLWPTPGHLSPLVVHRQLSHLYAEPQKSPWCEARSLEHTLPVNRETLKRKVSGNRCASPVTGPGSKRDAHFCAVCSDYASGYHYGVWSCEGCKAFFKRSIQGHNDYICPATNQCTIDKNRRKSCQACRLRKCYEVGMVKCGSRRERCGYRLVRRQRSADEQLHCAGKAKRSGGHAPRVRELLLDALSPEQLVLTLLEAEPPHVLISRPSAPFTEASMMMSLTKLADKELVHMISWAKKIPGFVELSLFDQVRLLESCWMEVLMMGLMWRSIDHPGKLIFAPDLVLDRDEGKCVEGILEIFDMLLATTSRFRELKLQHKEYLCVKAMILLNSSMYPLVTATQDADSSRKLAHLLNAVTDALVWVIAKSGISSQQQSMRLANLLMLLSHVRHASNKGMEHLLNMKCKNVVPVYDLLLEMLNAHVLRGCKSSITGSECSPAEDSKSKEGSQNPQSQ
Procedure: as §1, §2

B16F10 melanoma cells = assay: In vivo cancer model: B16F10 model of pulmonary metastasis; design: species or system C57BL6 mice; details: intraperitoneal doses at 0.3, 3 and 30 mg/kg, daily, day 21, FIG. 1
Procedure: In Vivo Cancer Model: B16F10 Model of Pulmonary Metastasis
B16F10 cells were cultured in standard growth media, harvested when approximately 50% confluent and injected into C57BL6 mice via the tail vein (50,000 cells per mouse in 200 μL). Mice were then treated daily with test compound. On day 21, mice were euthanized. Lungs were harvested and placed into Fekete's solution overnight to facilitate visualization of the tumors. Black nodules were enumerated.
Statistics were performed by ANOVA with Dunnett's Multiple Comparison Test post-hoc to determine statistical differences from vehicle treatment group (* denotes P<0.05 while *** denotes P<0.001).

IC50 (PPAR beta/delta): 2600 nM
IC50 (PPAR gamma): 2900 nM
IC50 (Thyroid Receptor β): > 10000 nM
IC50 (Estrogen Receptor β): 11400 nM
SMILES: CCn1c(CCCc2ccc(-c3ccc(NS(=O)(=O)c4ccccc4)cn3)cc2)nn(Cc2ccc(C(C)(C)C)cc2)c1=O [Example 10, N-(6-(4-(3-(1-(4-(tert-Butyl)benzyl)-4-ethyl-5-oxo-4,5-dihydro-1H-1,2,4-triazol-3-yl)propyl)phenyl)pyridin-3-yl)benzenesulfonamide]
metastasis of B16F10 melanoma cells to the lung (black nodules enumerated) (B16F10 melanoma cells): inhibition of metastasis
